Assay results: paper PMC4878443 (Journal of medicinal chemistry, 2015)

Each molecule was assayed against human LSD1 (Homo sapiens, UniProt O60341) (assay: LSD1 inhibition, mass spectrometry). Conditions: not given.
Assay type: biochemical

| SMILES | LSD1 inhibition in words |
| --- | --- |
| c1ccc(-c2ccc(OCC3CCNCC3)cn2)cc1 [Compound 3] | inactive |
| c1ccc(-c2cc(OCC3CCNCC3)cnc2-c2ccccc2)cc1 [Compound 11] | inactive |
| C#Cc1ccc(-c2cc(OCC3CCNCC3)cnc2-c2ccc(C)cc2)cc1 [Compound 28] | activity loss |
| Cc1ccc(-c2ncc(OCC3CCNCC3)cc2-c2ccc(C(=O)O)cc2)cc1 [Compound 29] | completely lose inhibitory activities |

Second part, the molecule after the results:

| LSD1 inhibition in words | SMILES |
| --- | --- |
| completely lose inhibitory activities | Cc1ccc(-c2ncc(OCC3CCNCC3)cc2-c2ccc(CO)cc2)cc1 [Compound 30] |
| almost inactive | Cc1ccc(-c2ncc(OCC3CCNCC3)cc2-c2ccc(CN3CCCCC3)cc2)cc1 [Compound 36] |
| Loss of activity | Cc1ccc(-c2ncc(O)cc2-c2ccc(C#N)cc2)cc1 [Compound 44] |
| Loss of activity | Cc1ccc(-c2ncc(OCc3ccccc3)cc2-c2ccc(C#N)cc2)cc1 [Compound 45] |

Same assay, conditions: Ki ratio to compound 17

| fold less active against LSD1 than compound 17 | SMILES |
| --- | --- |
| > 1,700 fold | C#Cc1ccc(-c2cc(OCC3CCNCC3)cnc2-c2ccc(C)cc2)cc1 [Compound 28] |

These molecules were tested on normal fibroblast cells WI-38 (assay: Cell growth inhibition). Conditions: not given.
Assay type: cell-based

| SMILES | activity against growth of normal cells in words |
| --- | --- |
| CN1CCN(C(=O)CN[C@H]2C[C@@H]2c2ccc(-c3ccc(F)nc3)cc2)CC1 [Compound S2] | inactive |
